We go through 48 molecules from patent US10138242B2, “Pyrazolopyridine derivatives and their use in therapy” (HELMHOLTZ ZENTRUM MUENCHEN—DEUTSCHES FORSCHUNGSZENTRUM FUER …, priority 2015, dated 2018).

SMILES strings stand for the structures. pIC50: −log10 of the molar value.

The test system of test [1] is T. brucei brucei bloodstream form parasites (strain Lister 427). The test is described as follows: Antitrypanosomal activity assay (resazurin; FIG. 2). The format is cell-based. The conditions noted are these: Trypanosoma brucei; 66 h + 6 h resazurin. The protocol:
(A) The trypanosoma cell count and growth were evaluated at different doses of compounds of the invention.
Antitrypanosomal activity was tested on T. brucei brucei bloodstream from parasites (strain—Lister 427, VATMITat 1.2). Stock solutions of compounds (50 mM) were prepared in DMSO. Two fold serial dilutions of each compound (10 wells in each row) were prepared in 96 well plates in HMI111 medium (100 μl/well; quadruplicates; cf. also Hirumi et al., J. Parasitol. 75 (1989), 985-989). One well without compound, and one well with media alone were included in each row. […] The plates were incubated for 66 hours at 37° C. in the incubator with 5% CO2. 20 μl resazurin (Sigma, 0.125 mg/ml in Hanks Balanced Salt Solution) was added to all wells and the plate was further incubated for 6 hours. Change in color of resazurin (blue to pink) by living cells was measured with a 96 well plate reader (excitation at 530 nm, emission at 585 nm, filter cut-off: 570 nm). Percent inhibition values were calculated by setting the well without compound to “0% inhibition”.

In test [2] the target is PEX5-PEX14 complex (biotin-coupled PEX5 peptide, His-tagged T. brucei PEX14) (Trypanosoma brucei brucei, UniProt Q38CL4). Kind of test: biochemical. The format is binding. The conditions noted are these: 30 nM PEX5, 30 nM PEX14; quadruplicate; read-out: AlphaScreen EC50 [μM] (±SD). From the text:
The assay uses two types of beads: donor beads are coupled with streptavidin, and acceptor beads are coupled with an anti His-tag antibody. Upon excitation with light of a wavelength of 680 nm the donor beads produce reactive oxygen species that travel in solution only for a limited distance. If the acceptor beads are within that travel distance, it will absorb the reactive oxygen and emit light in the range of 520-620 nm. […] Thus, PEX5-PEX14 complex dissociation by a ligand caused decrease in light emission as the donor and acceptor beads were separated. Typically, we used 30 nM PEX5, 30 nM PEX14 and bead concentrations of 5 μg/mL. The PEX5-PEX14 complex was incubated with varying concentrations of inhibitor for 1 hour. Next, the beads were added and the system allowed to equilibrate for another hour. The raw data were fitted to four parameter sigmoidal curves by Origin software and EC50 values calculated. Each measurement was performed in quadruplicate and every experiment was accompanied with blank and reference samples (using non-biotynylated PEX5 peptide as a binding competitor).

PEX5-PEX14 complex (biotin-coupled PEX5 peptide, His-tagged T. brucei PEX14), sequence (Q38CL4 1-366, one chain of several): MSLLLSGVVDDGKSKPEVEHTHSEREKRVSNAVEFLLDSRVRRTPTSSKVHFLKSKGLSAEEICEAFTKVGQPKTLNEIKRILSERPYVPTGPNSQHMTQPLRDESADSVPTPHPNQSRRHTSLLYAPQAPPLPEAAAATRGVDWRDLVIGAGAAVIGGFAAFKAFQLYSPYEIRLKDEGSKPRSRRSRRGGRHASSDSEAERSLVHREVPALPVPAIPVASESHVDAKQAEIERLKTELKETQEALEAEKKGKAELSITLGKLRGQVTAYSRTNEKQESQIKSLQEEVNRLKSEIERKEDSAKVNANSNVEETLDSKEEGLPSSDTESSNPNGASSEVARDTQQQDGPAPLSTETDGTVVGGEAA

For `NC(=O)Cn1nc(C(=O)NCc2ccccc2)c2c1CCN(Cc1c[nH]c3ccccc13)C2` [Compound 4], the negative logarithm of the IC50 (pIC50) in test [1] was 4.29. The EC50 in test [2] is 1380 µM.

For the molecule `COc1ccc(CN2CCc3[nH]nc(C(=O)NCc4cccc5ccccc45)c3C2)c2ccccc12` [Compound 5], in test [1], the pIC50 is 5.47. Also, the EC50 in test [2] stood at 16.5 µM.

Consider `O=C(NCc1ccccc1)c1nn(-c2ccccc2)c2c1CN(Cc1c[nH]c3ccccc13)CC2` [Compound 6], for which, in test [1], the pIC50 was 5.10. The EC50 in test [2] is 18.3 µM.

`Cn1nc(C(=O)NCc2ccccc2)c2c1CCN(Cc1ccccc1)C2` [Compound 7]: the pIC50 in test [1] was 4.35. Further, in test [2], the 50% effective concentration (EC50) stood at 4530 µM.

Consider `Cn1nc(C(=O)NCc2ccccc2)c2c1CCN(Cc1ccc(-c3ccccc3)cc1)C2` [Compound 9], for which, in test [1], the pIC50 was 5.17. Also, the EC50 in test [2] was 27.8 µM.

In the case of `Cn1nc(C(=O)NCc2ccccc2)c2c1CCN(Cc1cccc(-c3ccccc3)c1)C2` [Compound 10], the pIC50 in test [1] was 5.13. In test [2], the EC50 stood at 33.6 µM.

For the molecule `Cn1nc(C(=O)NCc2ccccc2)c2c1CCN(Cc1c[nH]c3cc(OCc4ccccc4)ccc13)C2` [Compound 11], the pIC50 in test [1] was 5.96. For the same molecule, the 50% effective concentration (EC50) in test [2] amounted to 22.1 µM.

Turning to `Cn1nc(C(=O)NCc2ccccc2)c2c1CCN(Cc1cccc3ccccc13)C2` [Compound 12], in test [1], the pIC50 was 4.92.

`COc1ccc(CN2CCc3c(c(C(=O)NCc4cccc5ccccc45)nn3CCN3CCOCC3)C2)c2ccccc12` [Compound 13]: the pIC50 in test [1] was 5.45. The concentration for a half-maximal effect (EC50) in test [2] was determined as 6.72 µM.

In the case of `COc1ccc(CN2CCc3c(c(C(=O)NCc4cccc5ccccc45)nn3-c3cnccn3)C2)c2ccccc12` [Compound 14], the pIC50 in test [1] is 5.44. In test [2], the EC50 is 11.9 µM.

For the molecule `COc1ccc(CN2CCc3c(c(C(=O)NCc4cccc5ccccc45)nn3C3CN(C(=O)C(C)(C)C)C3)C2)c2ccccc12` [Compound 15], the pIC50 in test [1] is 5.83. Besides, the EC50 in test [2] worked out at 7.92 µM.

As to `COc1ccc(CN2CCc3c(c(C(=O)NCc4cccc5ccccc45)nn3C3CCCC3)C2)c2ccccc12` [Compound 16], the pIC50 in test [1] is 5.63. Moreover, the EC50 in test [2] amounted to 10.6 µM.

On to `COc1ccc(CN2CCc3c(c(C(=O)NCc4cccc5ccccc45)nn3Cc3ccccc3)C2)c2ccccc12` [Compound 17], for which, in test [1], the pIC50 was 5.59. Moreover, the concentration giving a half-maximal response (EC50) in test [2] was found to be 10.5 µM.

Regarding `CCc1ccc(CN2CCc3c(c(C(=O)NCc4ccccc4)nn3CCO)C2)cc1` [Compound 23], the EC50 in test [2] was determined as 133 µM.

Take `COC(=O)c1cccc2c(CN3CCc4c(c(C(=O)NCc5ccccc5)nn4CCO)C3)c[nH]c12` [Compound 28]: in test [2], the concentration for a half-maximal effect (EC50) came out at 155 µM.

In the case of `CC(=O)c1ccc(CN2CCc3c(c(C(=O)NCc4ccccc4)nn3CCO)C2)cc1` [Compound 29], the EC50 in test [2] was determined as 222 µM.

Take `Cn1nc(C(=O)NCc2ccc3ccccc3c2)c2c1CCN(Cc1c[nH]c3ccccc13)C2` [Compound 31]: the EC50 in test [2] came out at 35.2 µM.

On to `Cn1nc(C(=O)NCc2cccc3ccccc23)c2c1CCN(Cc1cccc3ccccc13)C2` [Compound 33], for which, in test [2], the concentration for a half-maximal effect (EC50) was 41.8 µM.

With `Cc1nc2sccn2c1CN1CCc2c(c(C(=O)NCc3ccccc3)nn2CCO)C1` [Compound 63], in test [2], the EC50 amounted to 171 µM.

For the molecule `O=C(NCc1ccccc1)c1nn(CCO)c2c1CN(CC1=CC(=O)C3C=C(Cl)C=CC3O1)CC2` (stereo not drawn) [Compound 64], the concentration for a half-maximal effect (EC50) in test [2] turned out to be 132 µM.

For `CC(NC(=O)c1nn(CCO)c2c1CN(Cc1cnn(-c3ccccc3)c1)CC2)c1ccccc1` (stereo not drawn) [Compound 65], the EC50 in test [2] was 112 µM.

As for `CC(NC(=O)c1nn(CCO)c2c1CN(Cc1ccc3ccoc3c1)CC2)c1ccccc1` (stereo not drawn) [Compound 66], the EC50 in test [2] amounted to 147 µM.

Take `O=C(c1nn(Cc2ccccn2)c2c1CN(Cc1ccccc1)CC2)N1CCc2ccccc2C1` [Compound 67]: the EC50 in test [2] came out at 74.3 µM.

For the molecule `O=C(NCc1ccccc1)c1nn(CCO)c2c1CN(Cc1ccc3c(c1)OC=CO3)CC2` [Compound 68], the concentration giving a half-maximal response (EC50) in test [2] is 159 µM.

Turning to `CC(NC(=O)c1nn(CCO)c2c1CN(Cc1cccc3c1OCO3)CC2)c1ccccc1` (stereo not drawn) [Compound 69], the EC50 in test [2] is 151 µM.

Turning to `Cn1nc(C(=O)NCc2ccccc2)c2c1CCN(Cc1noc3c1CCCC3)C2` [Compound 70], in test [2], the EC50 is 9.69 µM.

In the case of `CCc1ccc(CN2CCc3c(c(C(=O)NCc4ccccc4)nn3CCO)C2)cc1` [Compound 71], in test [2], the concentration for a half-maximal effect (EC50) is 150 µM.

On to `O=C(NCc1ccccc1)c1nn(CCO)c2c1CN(Cc1ccccc1C(F)(F)F)CC2` [Compound 72], for which the concentration giving a half-maximal response (EC50) in test [2] is 223 µM.

In the case of `O=C(CC1CC1)N1CCc2c(c(C(=O)N3CCc4ccccc4C3)nn2Cc2ccccn2)C1` [Compound 73], the EC50 in test [2] turned out to be 220 µM.

For the molecule `O=C(NCc1ccccc1)c1nn(CCO)c2c1CN(Cc1ccccc1-c1ccco1)CC2` [Compound 74], in test [2], the EC50 is 78.3 µM.

Turning to `COc1cc(CN2CCc3c(c(C(=O)NCc4ccccc4)nn3CCO)C2)cc2c1OCO2` [Compound 75], the EC50 in test [2] came out at 94.9 µM.

In the case of `O=C(NCc1ccccc1)c1nn(CCO)c2c1CN(Cc1cccc(OC(F)F)c1)CC2` [Compound 76], the EC50 in test [2] turned out to be 148 µM.

For `C=C(C)C1CC=C(CN2CCc3c(c(C(=O)NCc4ccccc4)nn3CCO)C2)CC1` (stereo not drawn) [Compound 77], the half-maximal effective concentration (EC50) in test [2] worked out at 142 µM.

On to `O=C(NCc1ccccc1)c1nn(CCO)c2c1CN(Cc1ccc(-c3ccccc3)cc1)CC2` [Compound 78], for which, in test [2], the EC50 amounted to 68.8 µM.

Regarding `C=CCn1nc(C(=O)NCc2ccccc2)c2c1CCN(Cc1ccc3ncccc3c1)C2` [Compound 79], the EC50 in test [2] came to 95.4 µM.

For `Cc1ccccc1-c1ccc(CN2CCc3c(c(C(=O)NCc4ccccc4)nn3CCO)C2)cc1` [Compound 80], the EC50 in test [2] stood at 45.9 µM.

Consider `O=C(NCc1ccccc1)c1nn(CCO)c2c1CN(CC(c1ccccc1)c1ccccc1)CC2` [Compound 81], for which the EC50 in test [2] was determined as 74.9 µM.

Turning to `O=C(NCc1ccccc1)c1nn(CCO)c2c1CN(Cc1cnn(-c3ccccc3)c1)CC2` [Compound 82], the EC50 in test [2] came out at 149 µM.

Regarding `O=C(NCc1ccccc1)c1nn(CCO)c2c1CN(Cc1cccn1-c1ccccn1)CC2` [Compound 83], in test [2], the concentration for a half-maximal effect (EC50) was 132 µM.

In the case of `CC(NC(=O)c1nn(CCO)c2c1CN(CC1Cc3ccccc3CN1C)CC2)c1ccccc1` (stereo not drawn) [Compound 86], the EC50 in test [2] came to 169 µM.

For `CC(NC(=O)c1nn(CCO)c2c1CN(C(=O)c1ncc3sccn13)CC2)c1ccccc1` (stereo not drawn) [Compound 87], the half-maximal effective concentration (EC50) in test [2] worked out at 230 µM.

As for `COC(=O)c1ccc2c(CN3CCc4c(c(C(=O)NCc5cccc6ccccc56)nn4CCO)C3)c[nH]c2c1` [Compound 108], the EC50 in test [2] was 38.7 µM.

As for `O=C(NCc1cccc2ccccc12)c1nn(CCO)c2c1CN(Cc1c[nH]c3cc(OCc4ccccc4)ccc13)CC2` [Compound 113], in test [2], the EC50 was determined as 72.1 µM.

In the case of `O=C(NCc1cccc2ccccc12)c1nn(CCO)c2c1CN(CCc1ccccc1)CC2` [Compound 116], the EC50 in test [2] was determined as 230 µM.

`O=C(NCc1cccc2ccccc12)c1nn(CCO)c2c1CN(Cc1c[nH]c3c(C(=O)O)cccc13)CC2` [Compound 117]: the EC50 in test [2] was found to be 391 µM.

As to `Cc1ccc(CCN2CCc3c(c(C(=O)NCc4cccc5ccccc45)nn3CCO)C2)cc1` [Compound 118], the EC50 in test [2] worked out at 632 µM.

For `CCOC(=O)CN(Cc1cccc2ccccc12)C(=O)c1nn(CCO)c2c1CN(Cc1ccc(OC)c3ccccc13)CC2` [Compound 121], the pIC50 in test [1] is 5.30.

On to `COc1ccc(CN2CCc3c(c(C(=O)NCc4cccc5ccccc45)nn3CCC(C)(C)C)C2)c2ccccc12` [Compound 124], for which, in test [1], the pIC50 is 5.46.
